Drawing on patent US20260355325A1, “DIMER COMPOUNDS” (KESMALEA THERAPEUTICS LIMITED, priority 2023, published 2026), this text covers DC50 and IC50 for four molecules.

One assay has as its target T1, AR (Androgen Receptor) (Homo sapiens, UniProt P10275).
T1 construct: immunofluorescence degradation readout (antibody D6F11), 48 h
T1 sequence (P10275 1-920): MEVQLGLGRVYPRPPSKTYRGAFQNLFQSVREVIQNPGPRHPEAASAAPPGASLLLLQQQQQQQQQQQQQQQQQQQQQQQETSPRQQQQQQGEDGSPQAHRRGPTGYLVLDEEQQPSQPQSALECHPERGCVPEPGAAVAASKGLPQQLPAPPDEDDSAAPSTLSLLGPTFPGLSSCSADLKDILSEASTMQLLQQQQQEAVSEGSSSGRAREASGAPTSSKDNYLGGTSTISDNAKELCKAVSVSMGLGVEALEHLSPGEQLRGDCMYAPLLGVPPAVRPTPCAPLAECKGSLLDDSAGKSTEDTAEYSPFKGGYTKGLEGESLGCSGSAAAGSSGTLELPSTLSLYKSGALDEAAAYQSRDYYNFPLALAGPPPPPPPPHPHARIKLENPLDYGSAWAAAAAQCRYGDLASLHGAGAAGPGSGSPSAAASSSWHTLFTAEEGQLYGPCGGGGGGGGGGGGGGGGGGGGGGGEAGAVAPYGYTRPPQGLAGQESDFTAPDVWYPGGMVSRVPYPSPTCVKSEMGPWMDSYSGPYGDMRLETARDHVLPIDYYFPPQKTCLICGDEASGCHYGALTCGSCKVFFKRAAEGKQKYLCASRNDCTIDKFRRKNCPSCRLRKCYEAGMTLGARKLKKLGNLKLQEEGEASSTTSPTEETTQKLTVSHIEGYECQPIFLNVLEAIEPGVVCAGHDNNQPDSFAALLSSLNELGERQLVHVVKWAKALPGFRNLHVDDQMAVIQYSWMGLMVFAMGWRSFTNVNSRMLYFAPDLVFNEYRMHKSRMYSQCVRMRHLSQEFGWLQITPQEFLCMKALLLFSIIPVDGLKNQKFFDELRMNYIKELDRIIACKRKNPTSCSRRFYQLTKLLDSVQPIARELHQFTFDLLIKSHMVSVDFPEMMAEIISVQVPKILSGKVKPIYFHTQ
Kind of assay: AR IFA Assay (androgen receptor degradation in LNCaP and VCaP cells). In kind it is cell-based. The following applies: AR degradation in cells (LNCaP, VCaP) at 48-hour timepoint. The text has this: The purpose of the AR Assays were to assess the binding affinity of the dimer to AR and subsequent protein degradation.
LNCaP, and VCaP cells were obtained from ATCC (ATCC, Manassas, VA). LNCaP cells were maintained in RPMI 1640 (Invitrogen™, Waltham, MA) supplemented with 10% FBS (AusGeneX, Molendinar, Australia) and 1% penicillin/streptomycin (Invitrogen™, Waltham, MA). VCaP cells were maintained in 1:1 ratio F-12(HAM) Nutrient mixture (AdvanCell Technology, Taichung city, Taiwan) and DMEM (Invitrogen™, Waltham, MA) supplemented with 10% FBS (AusGeneX, Molendinar, Australia) and 1% penicillin/streptomycin (Invitrogen™, Waltham, MA).
Compounds were dissolved in DMSO (10 mM), serially diluted from 10 mM to 1.5 nM, and pre-incubated for 2 hours. Exponentially growing cells were seeded at 8×10^3 cells per well of 384 well plate (Corning, New York #356663). Cells were treated with compound for 48 hours. Following treatment, cells were fixed with 4% PFA (SolarBio Lifescience, Beijing, China) for 20 minutes, permeabilised in 100% ice-cold methanol (Merck, Darmstadt, Germany) for 10 minutes, and blocked with blocking buffer (LI-COR Biosciences Lincoln, NE) for 90 minutes. Cells were incubated with primary Androgen Receptor (D6F11) XP® Rabbit mAb antibody (CST #5153 Danvers, MA) at 1:1000 dilution overnight in blocking buffer (LI-COR, Lincoln, NE) at 4° C. Cells were washed in DPBS (Thermo Fisher Scientific, Waltham, MA) and incubated with secondary antibody AlexaFluor 488 goat anti rabbit (Invitrogen™ #A-11008 Waltham, MA) 1:1000 dilution, with Hoechst stain (Invitrogen™ Waltham, MA) 1:5000 dilution in blocking buffer (LI-COR Biosciences, Lincoln, NE) for 90 minutes. After final DPBS wash, 200 ul of DPBS was added to the cells, and signal read on Operetta (Revvity, Waltham, MA). Each data point was performed in duplicate for every experiment. A DC50 value was calculated from linear regression analysis of the plots.

Assay [1] has as its system 22RV-1, LNCaP, and VCaP cells. The experiment in a line: AR CTG Assay (Cell Titer-Glo cell viability). It counts as cell-based. The following applies: Cell viability in cells at 24-hour timepoint (22RV-1, LNCaP, VCaP; line not stated). The text has this:
22RV-1, LNCaP, and VCaP cells were obtained from ATCC (ATCC, Manassas, VA). 22RV-1 and LNCaP cells were maintained in RPMI 1640 (Invitrogen™, Waltham, MA) supplemented with 10% FBS (AusGeneX, Molendinar, Australia) and 1% penicillin/streptomycin (Invitrogen™, Waltham, MA). VCaP cells were maintained in 1:1 ratio F-12(HAM) Nutrient mixture (AdvanCell Technology, Taichung city, Taiwan) and DMEM (Invitrogen™, Waltham, MA) supplemented with 10% FBS (AusGeneX, Molendinar, Australia) and 1% penicillin/streptomycin (Invitrogen™, Waltham, MA).
Compounds were dissolved in DMSO (10 mM), serially diluted from 10 mM to 1.5 nM, and pre-incubated for 2 hours. Exponentially growing cells were seeded at 8×10^3 cells per well of 384 well plate (Corning, New York #3570). Cells were treated with compound for 24 hours. Following treatment, Cell Titer-Glo® Detection reagent (Promega Corporation, Madison, WA) was added according to manufacturer's instructions, and signal read using BMG CLARIOstar plate reader (BMG Labtech, Ortenburg, Germany). Each data point was performed in duplicate for every experiment. A GI50 value was calculated from linear regression analysis of the plots.

Consider `Cc1cc(C(=O)N(C)CCCOc2cccc3c2CN(C2CCC(=O)NC2=O)C3=O)ccc1B1O[C@H]2C[C@H]3C[C@H](C3(C)C)[C@@]2(CCCNc2ccc(C(=O)N[C@H]3CC[C@H](Oc4ccc(C#N)c(Cl)c4)CC3)cc2)O1` (mixture of isomers) [Example 23, 4-((3aR,4R,6R,7aS)-3a-(3-((4-((trans-4-(3-chloro-4-cyanophenoxy)cyclohexyl)carbamoyl)phenyl)amino)propyl)-5,5-dimethylhexahydro-4,6-methanobenzo[d][1,3,2]dioxaborol-2-yl)-N-(3-((2-(2,6-dioxopiperidin-3-yl)-1-oxoisoindolin-4-yl)oxy)propyl)-N,3-dimethylbenzamide], for which the 50% degradation concentration (DC50) on AR (Androgen Receptor) fell in the range of 100 to 500 nM. This molecule also came in with an IC50 in assay [1] above 10000 nM.
In the same order, the values of `Cc1ccc(C(=O)N(C)CCCOc2cccc3c2CN(C2CCC(=O)NC2=O)C3=O)cc1B1O[C@H]2C[C@H]3C[C@H](C3(C)C)[C@@]2(CCCNc2ccc(C(=O)N[C@H]3CC[C@H](Oc4ccc(C#N)c(Cl)c4)CC3)cc2)O1` (mixture of isomers) [Example 24, 3-((3aR,4R,6R,7aS)-3a-(3-((4-((trans-4-(3-chloro-4-cyanophenoxy)cyclohexyl)carbamoyl)phenyl)amino)propyl)-5,5-dimethylhexahydro-4,6-methanobenzo[d][1,3,2]dioxaborol-2-yl)-N-(3-((2-(2,6-dioxopiperidin-3-yl)-1-oxoisoindolin-4-yl)oxy)propyl)-N,4-dimethylbenzamide] are 100 to 500 nM and above 10000 nM.
Taken in the same sequence, the figures for `Cc1cc([C@@H](C(=O)N2C[C@H](O)C[C@H]2C(=O)NCc2ccc(Cl)cc2B2O[C@H]3C[C@H]4C[C@H](C4(C)C)[C@@]3(CCNc3ccc(C(=O)N[C@H]4CC[C@H](Oc5ccc(C#N)c(Cl)c5)CC4)cc3)O2)C(C)C)on1` (racemic) [Example 22, (2S,4R)—N-(4-chloro-2-((3aR,4R,6R,7aS)-3a-(2-((4-((trans-4-(3-chloro-4-cyanophenoxy)cyclohexyl)carbamoyl)phenyl)amino)ethyl)-5,5-dimethylhexahydro-4,6-methanobenzo[d][1,3,2]dioxaborol-2-yl)benzyl)-4-hydroxy-1-((S)-3-methyl-2-(3-methylisoxazol-5-yl)butanoyl)pyrrolidine-2-carboxamide] were 100 to 500 nM and above 10000 nM.
In the case of `Cc1cc2c(cc1B1O[C@H]3C[C@H]4C[C@H](C4(C)C)[C@@]3(CCOc3ccc(N4C(=S)N(c5ccc(C#N)c(C(F)(F)F)c5)C(=O)C4(C)C)cc3)O1)CN(CCCOc1cccc3c1CN(C1CCC(=O)NC1=O)C3=O)C2=O` (stereo partly drawn) [Example 21, 4-(3-(4-(2-((3aR,4R,6R,7aS)-2-(2-(3-((2-(2,6-dioxopiperidin-3-yl)-1-oxoisoindolin-4-yl)oxy)propyl)-6-methyl-1-oxoisoindolin-5-yl)-5,5-dimethyltetrahydro-4,6-methanobenzo[d][1,3,2]dioxaborol-3a(4H)-yl)ethoxy)phenyl)-4,4-dimethyl-5-oxo-2-thioxoimidazolidin-1-yl)-2-(trifluoromethyl)benzonitrile], the DC50 on AR (Androgen Receptor) was 100 to 500 nM. Further, the half-inhibitory concentration (IC50) in assay [1] is above 10000 nM.
